Patent US11219625B2, “Inhibitors of N-linked glycosylation and methods using same” (YALE UNIVERSITY, priority 2015, dated 2022)

Legend:
Type in all cases: cell-based
PC9 cells = experiment: Apoptosis by flow cytometry (Annexin-V, 7-AAD), PC9; settings: PC9, NGI-1 10 μM for 2 or 5 days, or Tn 1 μM
Procedure: (§1) Analysis of apoptosis susceptibility in A549 and PC9 NSCLC cell lines followed treatment with NGI-1 10 μM or Tn 1 μM for 2 days was done by flow cytometry after staining the cells with Annexin-V (early apoptosis) and 7-AAD (viability dye). […] FIG. 9C: Western blot of BIP protein for A549 and PC9 cells after treatment with 10 μM NGI-1 for 6, 12 or 24 h. The expression of GAPDH was used as a loading control.

OST = experiment: 35S metabolic labeling of pSAP and SHBG in Hela cells
Procedure: FIGS. 2A-2I illustrate the finding that NGI-1 blocks OST function. FIG. 2A illustrates the western blots of glycosylated luciferase (Luc) after treatment with 1 μM tunicmaycin (Tn) and 10 μM NGI-1 in CHO-Lec15 and CHO-Lec35 cells with stable expression of ER-LucT. FIG. 2B is a […] illustrating FACE analysis of lipid linked oligosaccharides (LLOs). FIG. 2C is a series of western blots illustrating the effects of NGI-1 (5 μM) on free oligosaccharides (left panel) and N-linked glycans cleaved from peptides with Peptide-N-Glycosidase F (right panel). Carbohydrate size is indicated with glucose markers (G4-G7). FIG. 2D is a western blot illustrating cell free inhibition of the OST using a rabbit reticulocyte lysate translation system supplemented with canine pancreas rough microsomes (cRM). Saposin-DDK-His6 mRNA was translated for 60 min in the presence of ^35S methionine and the indicated concentration of NGI-1 or Tn. […] FIG. 2E comprises a series of western blots illustrating results from NGI-1 compared to siRNA knockdown of STT3A or STT3B. Glycoforms are represented by 0-5n and 0-2n respectively and average number of glycans per sample is reported for each condition. NC=non-coding siRNA, EH=endoglycosidase H treated. […] FIGS. 2G-2H: Dose response and quantitation of NGI-1 effect on pSAP (squares) and SHBG glycosylation (circles). […]

A549 cells = experiment: Apoptosis by flow cytometry (Annexin-V, 7-AAD), A549; settings: A549, NGI-1 10 μM for 2 or 5 days, or Tn 1 μM
Procedure: as §1

HepG2 cells = experiment: Celltiter Glo viability assay, HepG2; settings: HEPG2 EC50 over NLG AC40
Description: (§2) The HTS approach using the bioluminescent N-linked glycosylation reporter (CCR 2011) in D54-ERLucT and D54-LucT cells has been previously described (Bennett, et al., Transl Oncol 2013, 6, 382-391). Briefly, the primary cell-based screen detects site occupancy of NLG sequons using a modified luciferase protein translated into the ER. […] The methodology for the primary (D54-ERlucT), secondary (D54-LucT), and tertiary (luciferase inhibition) screens as well and toxicity assays with CelltitreGlo are deposited in Pubchem (AID 588693).
(§3) To better understand the connection between structure and activity, analogs were prepared and tested in the D54-ERLucT cell based assay for inhibition of N-linked glycosylation (FIG. 1B). The assay was used to estimate and compare AC40 values among analogs and to guide the design of improved compounds that inhibited N-linked glycosylation. This effort generated 36 unique compounds with modifications to the amine component of the sulfonamide functionality (red), the pyrrolidine moiety (blue) or the methylaminothiazole group (green). Generally, incorporation of larger sulfonamides (i.e., larger secondary amines appended to the sulphone) was not well tolerated, resulting in erosion of potency (7 analogs). However, steric interactions could be mitigated by the introduction of a hydrogen bond accepting oxygen in a larger cyclic amine. Thus, morpholine was determined to be an acceptable surrogate for the dimethylamine component of the sulfonamide (FIGS. 1A-1D). The pyrrolidine group (blue) was replaced with various alkyl, cycloalkyl, and amine groups (7 compounds). The aminothiazole moiety was derivatized most extensively of all three regions (green highlighted area, 22 analogs). […] Analogs with the highest potency in the luciferase assay were retested with western blot analysis to insure that measurements of luciferase activation corresponded to loss of N-linked glycosylation.

[1] = Celltiter Glo viability assay, HepG2; settings: human, HepG2 cells; HEPG2, 72 h of compound exposure; read-out: Cytotoxicity Assay Mean EC50
Description: as §2, §3

Cc1cnc(NC(=O)c2cc(S(=O)(=O)N(C)C)ccc2N2CCCC2)s1 [NGI-1, 5-(N,N-Dimethylsulfamoyl)-N-(5-methylthiazol-2-yl)-2-(pyrrolidin-1-yl)benzamide]
induction of apoptosis (PC9 cells): did not induce apoptosis | glycosylation of pSAP and SHBG sites (OST; 10 μM NGI-1, 24 h, compared to STT3A/STT3B knockdown): reduced glycosylation of all sites on pSAP and SHBG | reversibility of OST inhibition (OST; NGI-1 24 h prior to, during 20 min labeling, or both): reversible OST inhibitor | induction of apoptosis (A549 cells): did not induce apoptosis | Selectivity (EC50/AC40) (HepG2 cells): >172 | EC50 at 72 h [1]: > 30 µM
